# Measurements as given in ChEMBL document CHEMBL1201862, “PubChem BioAssay data set” (2004).
# Values joined by “and” are separate entries in the source; they are usually repeats but may differ in a detail not shown here. Identical values can stand only once. Active and inactive are the calls of the source.
# Key:
# [1] = THP-1 cell cytotoxicity, dose response, cytotoxicity control for Vif-APOBEC3G degradation inhibitor project, THP-1 cells (AID 1117359); type: functional; conditions: Human immunodeficiency virus 1, THP-1
# [2] = molecular target: T1, Ubiquitin-conjugating enzyme E2 N (Homo sapiens, UniProt P61088); type: functional;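 also: Dose-response confirmation in a TR-FRET assay detecting UBC13-driven polyubiquitin chain formation, inhibition measured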
# T1 sequence (P61088 whole entry): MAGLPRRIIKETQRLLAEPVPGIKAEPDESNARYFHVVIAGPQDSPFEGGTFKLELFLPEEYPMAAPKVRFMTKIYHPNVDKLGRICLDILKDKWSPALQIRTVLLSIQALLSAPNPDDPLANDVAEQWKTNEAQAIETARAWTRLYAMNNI
# [3] = Luminescence Cell-Based Dose Response HTS to Identify Activators of Luciferase Translation or Activity in H4 […] Cells. [Related pubchem assays: 1829 (Project Summary), 1814 (Primary HTS)]; type: functional
# [4] = tested on: Streptococcus sp. 'group A'; assay: growth inhibition of control SK(-) GAS strain, dose response, counter-screen for streptokinase expression inhibitor project, luminescence, kanamycin, BacTiterGlo, confirmation (AID 1900); type: functional, organism-based
# H4 = assay: Luminescence Cell-Based Dose Response HTS to Identify Activators of 5'UTR Stem-Loop Driven Prion Protein mRNA Translation in H4 Neuroglioblastoma Cells. [Related pubchem assays: 1829 (Project Summary), 1814 (Primary HTS)]; type: functional; conditions: Homo sapiens
# Streptokinase A = molecular target: T2, Streptokinase A (Streptococcus pyogenes serotype M1, UniProt P10520); assay: S. pyogenes streptokinase expression inhibitors, potency, dose response, plasminogen activation absorbance, OD405 (AID 1914); type: functional, Streptococcus pyogenes M1 GAS;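 also: secreted streptokinase activity via plasminogen activation per viability signal from cell pellet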
# T2 sequence (P10520 whole entry): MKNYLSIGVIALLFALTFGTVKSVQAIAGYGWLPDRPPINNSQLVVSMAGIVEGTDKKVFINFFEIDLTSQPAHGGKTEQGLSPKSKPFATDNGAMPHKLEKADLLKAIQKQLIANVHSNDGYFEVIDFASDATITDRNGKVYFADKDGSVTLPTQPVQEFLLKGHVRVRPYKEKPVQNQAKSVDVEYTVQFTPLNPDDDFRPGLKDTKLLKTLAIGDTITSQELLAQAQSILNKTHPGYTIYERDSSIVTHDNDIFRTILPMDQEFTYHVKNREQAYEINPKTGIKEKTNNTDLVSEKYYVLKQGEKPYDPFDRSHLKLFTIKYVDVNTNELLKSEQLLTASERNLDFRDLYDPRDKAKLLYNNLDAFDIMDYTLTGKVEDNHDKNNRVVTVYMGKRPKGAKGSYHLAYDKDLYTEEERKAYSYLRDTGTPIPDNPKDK
# [5] = inhibitors of intracellular T. cruzi replication, confirmation, NIH3T3 host cells, beta-gal luminescence (AID 2044); type: functional, cell-based;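 also: intracellular parasites grown in NIH/3T3 mouse fibroblasts as host cells; luminescent beta-galactosidase reporter signal from transgenic T. cruzi replicating inside host cells; inhibitors lower the luminescence signal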
# [6] = cytotoxicity toward NIH3T3 fibroblasts, dose response, counter-screen, cell-based, ATP luminescence, mouse fibroblasts (AID 2010); type: functional;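 also: cells exposed to compound for about 90 hours before reading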
# Streptococcus = assay: Group A Streptococcus viability loss, dose response, counter-screen for streptokinase expression inhibitor project, luminescence, BacTiterGlo (AID 1915); type: functional, organism-based;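 also: potency for reduction of bacterial viability or growth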
# Nonstructural protein 1 = Nonstructural protein 1 (Influenza A virus, UniProt Q194T2); type: functional, Influenza A virus (A/California/07/2009(H1N1))
# Nonstructural protein 1, sequence (Q194T2 whole entry): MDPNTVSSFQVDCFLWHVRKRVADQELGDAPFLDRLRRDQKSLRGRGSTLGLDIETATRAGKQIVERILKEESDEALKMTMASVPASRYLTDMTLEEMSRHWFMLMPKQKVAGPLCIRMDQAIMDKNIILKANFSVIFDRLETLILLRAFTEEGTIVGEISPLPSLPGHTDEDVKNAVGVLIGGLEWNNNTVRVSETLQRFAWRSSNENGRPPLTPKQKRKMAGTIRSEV
# [7] = inhibitors of firefly luciferase expression or activity, dose response, H4 neuroglioma cells, luminescence (AID 1990); type: functional, cell-based
# BJ [8] = assay: cytotoxicity toward BJ-TERT fibroblasts, dose response, cell-based, RAS-independent, luminescence (AID 1933); type: functional; conditions: Homo sapiens
# [9] = Luminescence Cell-Based Dose Response HTS to Identify Inhibitors of 5'UTR Stem-Loop Driven Prion Protein mRNA Translation in H4 Neuroglioblastoma Cells. [Related pubchem assays: 1827 (Project Summary), 1813 (Primary HTS)]; type: functional
# [10] = inhibitors of SNCA 5'UTR-driven reporter translation, confirmation, H4 neuroglioma cells, luminescence (AID 1988); type: functional, cell-based
# BJ [11] = assay: cells; type: functional, cell-based; conditions: Homo sapiens
# [12] = growth suppression of PTEN-null colon cells, dose response, cell-based, HCT116 PTEN knockout (AID 1047); type: functional;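 also: HCT116 colon tumor cells with PTEN knocked out; cells exposed to compound for 60 hours before readout; potency for loss of cell viability measured by luminescence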
# [13] = growth suppression of beta-catenin-knockout colon cells, dose response, cell-based, HCT116, human colon tumor (AID 1045); type: functional;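 also: HCT116 colon tumor cells with beta catenin knocked out; cells exposed to compound for 60 hours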
# BJ [14] = assay: cytotoxicity toward BJ-TERT-LT-ST fibroblasts, dose response, cell-based, RAS-independent, luminescence (AID 1935); type: functional; conditions: Homo sapiens;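 also: BJ fibroblasts immortalized with TERT plus LT and ST oncogenes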
# [15] = cytotoxicity toward DRD oncogenic fibroblasts, dose response, cell-based, non-viral oncogenic, luminescence (AID 1934); type: functional; conditions: Homo sapiens
# Leucine aminopeptidase = molecular target: T3, Leucine aminopeptidase (Plasmodium falciparum 3D7, UniProt Q8IL11); assay: P. falciparum M17LAP inhibitors, primary screen, biochemical, fluorogenic H-Leu-NHMec substrate, 1536-well (AID 1619); type: functional
# T3 sequence (Q8IL11 whole entry): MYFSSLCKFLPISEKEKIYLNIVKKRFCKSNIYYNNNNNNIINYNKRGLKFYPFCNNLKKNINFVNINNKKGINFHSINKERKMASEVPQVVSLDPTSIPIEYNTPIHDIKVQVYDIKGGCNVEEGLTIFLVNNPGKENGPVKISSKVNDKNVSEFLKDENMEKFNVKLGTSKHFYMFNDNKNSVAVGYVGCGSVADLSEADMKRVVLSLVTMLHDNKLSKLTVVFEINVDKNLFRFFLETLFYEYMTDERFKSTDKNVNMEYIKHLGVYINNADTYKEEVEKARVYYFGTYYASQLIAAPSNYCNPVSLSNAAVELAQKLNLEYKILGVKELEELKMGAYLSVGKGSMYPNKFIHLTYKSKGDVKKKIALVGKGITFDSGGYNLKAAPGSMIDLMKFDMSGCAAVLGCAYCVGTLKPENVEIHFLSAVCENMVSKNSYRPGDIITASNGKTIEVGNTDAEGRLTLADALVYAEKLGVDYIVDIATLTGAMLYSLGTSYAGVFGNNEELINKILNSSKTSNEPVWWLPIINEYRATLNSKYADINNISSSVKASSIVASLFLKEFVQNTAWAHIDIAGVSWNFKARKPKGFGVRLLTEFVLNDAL
# Cytochrome P450 1A2 = molecular target: T4, Cytochrome P450 1A2 (Homo sapiens, UniProt P05177);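 also: PubChem cytochrome P450 panel assay, CYP1A2 panel member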
# T4 sequence (P05177 whole entry): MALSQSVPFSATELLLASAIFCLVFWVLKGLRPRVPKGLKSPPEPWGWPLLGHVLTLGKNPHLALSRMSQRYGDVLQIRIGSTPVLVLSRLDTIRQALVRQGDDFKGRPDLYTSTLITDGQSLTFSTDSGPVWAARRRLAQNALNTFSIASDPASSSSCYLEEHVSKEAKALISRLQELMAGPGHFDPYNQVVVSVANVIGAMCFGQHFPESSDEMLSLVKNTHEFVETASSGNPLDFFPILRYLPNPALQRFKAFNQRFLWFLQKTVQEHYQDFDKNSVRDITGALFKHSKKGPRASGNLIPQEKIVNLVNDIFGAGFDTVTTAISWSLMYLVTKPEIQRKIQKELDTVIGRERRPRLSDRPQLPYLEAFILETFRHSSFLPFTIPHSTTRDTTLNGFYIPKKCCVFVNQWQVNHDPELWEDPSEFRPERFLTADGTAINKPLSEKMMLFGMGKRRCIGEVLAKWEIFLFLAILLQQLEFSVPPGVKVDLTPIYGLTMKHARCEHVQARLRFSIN
# Cytochrome P450 2C9 = Cytochrome P450 2C9 (Homo sapiens, UniProt P11712)
# Cytochrome P450 2C9, sequence (P11712 whole entry): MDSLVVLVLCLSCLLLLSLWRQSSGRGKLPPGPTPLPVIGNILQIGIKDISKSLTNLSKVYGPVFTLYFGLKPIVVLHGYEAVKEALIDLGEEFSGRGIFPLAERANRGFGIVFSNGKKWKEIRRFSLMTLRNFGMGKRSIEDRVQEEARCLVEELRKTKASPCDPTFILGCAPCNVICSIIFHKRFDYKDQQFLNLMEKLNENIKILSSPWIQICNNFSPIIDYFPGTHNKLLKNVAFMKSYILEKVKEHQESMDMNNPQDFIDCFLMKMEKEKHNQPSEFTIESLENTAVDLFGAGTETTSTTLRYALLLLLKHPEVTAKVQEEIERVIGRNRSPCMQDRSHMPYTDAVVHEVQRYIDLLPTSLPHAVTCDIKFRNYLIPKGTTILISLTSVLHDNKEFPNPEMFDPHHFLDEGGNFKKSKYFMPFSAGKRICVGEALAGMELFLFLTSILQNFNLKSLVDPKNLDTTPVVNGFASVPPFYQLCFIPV
# [16] = molecular target: T5, Replicative DNA helicase DnaB (Mycobacterium tuberculosis, UniProt P9WMR3); assay: DnaB intein splicing inhibitors, dose response, biochemical, cell-free fluorescence (AID 449749); type: functional
# T5 sequence (P9WMR3 whole entry): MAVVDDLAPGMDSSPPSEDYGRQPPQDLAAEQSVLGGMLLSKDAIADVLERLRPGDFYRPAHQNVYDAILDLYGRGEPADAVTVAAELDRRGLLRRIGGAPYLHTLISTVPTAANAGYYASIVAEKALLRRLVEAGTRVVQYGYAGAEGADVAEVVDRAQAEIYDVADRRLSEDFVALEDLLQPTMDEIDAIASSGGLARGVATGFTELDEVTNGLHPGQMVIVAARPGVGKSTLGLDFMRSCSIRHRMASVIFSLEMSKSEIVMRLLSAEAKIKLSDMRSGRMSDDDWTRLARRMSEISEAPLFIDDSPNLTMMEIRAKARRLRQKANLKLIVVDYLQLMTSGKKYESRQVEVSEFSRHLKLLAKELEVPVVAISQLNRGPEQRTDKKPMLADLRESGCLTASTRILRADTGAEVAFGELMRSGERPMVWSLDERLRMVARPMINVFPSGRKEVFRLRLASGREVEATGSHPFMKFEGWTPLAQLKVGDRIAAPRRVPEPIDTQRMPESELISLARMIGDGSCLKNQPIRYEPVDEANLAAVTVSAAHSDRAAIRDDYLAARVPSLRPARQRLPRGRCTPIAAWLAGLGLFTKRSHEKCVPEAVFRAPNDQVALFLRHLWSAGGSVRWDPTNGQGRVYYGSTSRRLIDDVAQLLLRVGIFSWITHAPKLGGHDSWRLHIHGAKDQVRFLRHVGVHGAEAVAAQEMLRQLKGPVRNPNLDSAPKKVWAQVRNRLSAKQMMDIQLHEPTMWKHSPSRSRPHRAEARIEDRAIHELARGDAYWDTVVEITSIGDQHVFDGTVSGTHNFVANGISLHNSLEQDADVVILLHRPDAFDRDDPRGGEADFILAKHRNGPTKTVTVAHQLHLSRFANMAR
# Protein RecA = molecular target: T6, Protein RecA (Mycobacterium tuberculosis, UniProt P9WHJ3); assay: Fluorescence Cell-Free Homogeneous Dose Retest to Identify Inhibitors of RecA-Intein Splicing Activity. [Related pubchem assays (depositor defined):AID2097, AID2223, AID489010, AID492950]; type: functional
# T6 sequence (P9WHJ3 whole entry): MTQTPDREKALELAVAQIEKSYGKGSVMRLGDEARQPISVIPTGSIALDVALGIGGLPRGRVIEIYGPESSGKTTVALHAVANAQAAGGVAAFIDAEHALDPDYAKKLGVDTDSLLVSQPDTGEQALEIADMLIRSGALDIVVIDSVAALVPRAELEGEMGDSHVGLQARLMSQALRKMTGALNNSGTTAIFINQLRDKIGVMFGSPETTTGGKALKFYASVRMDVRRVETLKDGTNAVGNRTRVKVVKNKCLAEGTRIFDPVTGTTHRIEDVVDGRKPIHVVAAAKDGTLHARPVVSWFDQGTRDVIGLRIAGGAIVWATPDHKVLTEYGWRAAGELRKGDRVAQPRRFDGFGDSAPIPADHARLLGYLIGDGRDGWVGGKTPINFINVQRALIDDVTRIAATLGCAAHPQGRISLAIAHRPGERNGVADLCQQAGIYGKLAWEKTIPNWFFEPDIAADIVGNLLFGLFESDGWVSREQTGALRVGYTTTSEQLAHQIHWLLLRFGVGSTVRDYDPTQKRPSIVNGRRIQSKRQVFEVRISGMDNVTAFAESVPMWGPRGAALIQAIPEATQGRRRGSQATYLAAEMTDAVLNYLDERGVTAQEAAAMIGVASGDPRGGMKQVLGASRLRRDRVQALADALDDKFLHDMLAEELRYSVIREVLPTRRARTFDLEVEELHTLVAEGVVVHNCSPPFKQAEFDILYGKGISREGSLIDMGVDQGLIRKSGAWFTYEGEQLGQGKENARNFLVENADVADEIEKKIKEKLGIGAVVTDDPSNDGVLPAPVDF
smiles,measurement,setting,value
O=C(c1ccco1)N1CCN(C(=O)c2cn(-c3ccccc3)nc2-c2ccccc2)CC1,CC50,[1],32.8 µM (active)
Cc1cccc(N(C(=O)c2snc(C(N)=O)c2N)C(C(=O)NC2CCCC2)c2ccco2)c1 (stereo not given),IC50,[2],> 20 µM (inactive)
COc1ccc2nc(N3CCN(C(=O)c4ccc5ncsc5c4)CC3)sc2c1,CC50,[1],> 40 µM (active)
Cc1ccc(NC(=O)CSc2nc3ccccc3c(=O)n2CCCC(=O)NCCCN2CCOCC2)cc1C,IC50,[2],> 20 µM (inactive)
CCC(=O)NC(c1cc(Cl)c2ccccc2c1O)C(C)C (stereo not given),IC50,[2],> 20 µM (inactive)
COc1ccccc1N1CCN(C(=O)c2ccoc2C)CC1,CC50,[1],> 40 µM (active)
Nc1nc(-c2ccccn2)nc(N)c1Cc1ccccc1F,EC50,[3],5.85 µM (active)
same,EC50,[4],11 µM (active)
same,EC50,H4,0.414 µM (active)
same,EC50,Streptokinase A,> 150 µM (not active)
same,EC50,[5],2.52 µM (active)
same,EC50,[6],> 60 µM (not active)
same,EC50,Streptococcus,> 150 µM (not active)
same,IC50,Nonstructural protein 1,6.51 µM (active)
CC1CCN(C(=O)c2ccc3c(c2NCCO)C(=O)c2ccccc2C3=O)CC1,IC50,Nonstructural protein 1,24.5 µM (active)
CN(CC(=O)O)Cc1nc2ccccc2[nH]1,IC50,Nonstructural protein 1,11.6 µM (active)
COc1cc(/C=C(/C#N)c2nc3ccccc3[nH]2)ccc1OCC(=O)Nc1ccccc1C(C)C,EC50,[7],1.4 µM (active)
same,EC50,BJ [8],2.97 µM (active)
same,EC50,[9],3.34 µM (active)
same,EC50,[10],0.56 µM (active)
same,EC50,BJ [11],3.15 µM (active)
same,EC50,[12],19.6 µM (active)
same,EC50,[13],3.91 µM (active)
same,EC50,BJ [14],5.76 µM (inconclusive)
same,EC50,[15],2.81 µM (active)
Cc1ccc(C(=O)/C=C/c2cc(C#N)n(C)c2C)cc1,CC50,[1],> 40 µM (active)
CCN1CCN(Cc2ccc(NC(=O)c3cc(NC(=O)c4cc(-c5ccc(OC)cc5)n[nH]4)cc(OC)c3)cc2C(F)(F)F)CC1,EC50,Streptokinase A,> 150 µM (not active)
same,IC50,[2],> 20 µM (inactive)
COc1ccccc1NC(=O)c1c(/N=C/c2cccc([N+](=O)[O-])c2)cnn1C,IC50,[2],> 20 µM (inactive)
Cc1cc(NC(=O)CCN2C(=O)C3C4CCC(C4)C3C2=O)c(C)cc1Br (stereo not given),IC50,Leucine aminopeptidase,13.7 µM (active)
same,AC50,Cytochrome P450 1A2,15.8 µM (inconclusive)
same,AC50,Cytochrome P450 2C9,inconclusive
O=C(Cc1cc(O)n[nH]1)N/N=C/C(Cl)=C/c1ccccc1,IC50,Leucine aminopeptidase,90.6 µM (active)
same,AC50,[16],1.95 µM (active) and 2.24 µM (active)
same,EC50,Protein RecA,1.02 µM (active) and 2.32 µM (active)
